Reference: paper PMC9597602, “Metal Complexes as Antifungals? From a Crowd-Sourced Compound Library to the First In Vivo Experiments” (JACS Au, 2022)
Where two headings read alike, the source gives them in different places.

Columns and labels:
[1] = tested on: Candida albicans ATCC 90028 NCCLS11; assay: Antifungal MIC assay; assay type: cell-based; conditions: for MIC Candida albicans ATCC 90028 / MIC50 Candida albicans ATCC 90028: extended panel; for MIC Candida albicans ATCC 90028: second batch, ≥80 or ≥50% inhibition; for MIC50 Candida albicans ATCC 90028: 50% inhibition, MIC score 2; for MIC Ca: initial CO-ADD dose-response screening, ≥80% growth inhibition
How it was run: (§1)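 Read-out was the lowest compound concentration producing ≥80% growth inhibition, scored per CLSI M27. Yeast cells, precultured on YPD agar, were tested in YNB medium at a final 2.5 × 10^3 CFU/mL over 36 h at 35 °C.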

[2] = tested on: Cryptococcus neoformans H99 ATCC 208821 type strain; assay: Antifungal MIC assay; assay type: cell-based; conditions: for MIC50 Cryptococcus neoformans ATCC 208821: 50% inhibition, MIC score 2; for MIC: read-out: MIC* Cryptococcus neoformans ATCC 208821; for MIC Cn: initial CO-ADD dose-response screening, ≥80% growth inhibition
How it was run: as §1

[3] = tested on: HEK-293 human embryonic kidney cells ATCC CRL-1573
Description: The cells were incubated together with the compounds for 20 h at 37 °C in 5% CO2. […] Tamoxifen (Sigma T5648) was used as internal control on each plate.

[4] = tested on: human red blood cells; assay type: cell-based
How it was run: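 Washed human erythrocytes at 0.5 × 10^8 cells/mL incubated with compound, then centrifuged. Haemolysis read as supernatant OD405, normalised to untreated cells (0%) and 1% Triton X-100 (100%), with melittin as internal plate control.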

[5] = tested on: Candida auris CBS10913 JCM 15448; assay: Antifungal MIC assay, extended panel; assay type: cell-based; conditions: extended panel; for MIC50 Candida auris CBS10913: 50% inhibition, MIC score 2
How it was run: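 This broth dilution MIC test for yeast used colonies cultured 3 days at 30 °C on YPD agar, suspended to 1 × 10^6 to 5 × 10^6 CFU/mL by OD530 and diluted with YNB. Cells were added at a final 2.5 × 10^3 CFU/mL (50 μL total) to 384-well plates with compound, incubated unshaken at 35 °C for 36 h, with fluconazole as an internal control on every plate.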

[6] = tested on: Candida auris CBS12373 KCTC 17810; assay: Antifungal MIC assay, extended panel; assay type: cell-based; conditions: extended panel; for MIC Candida auris CBS12373: second batch, ≥80 or ≥50% inhibition; for MIC50 Candida auris CBS12373: 50% inhibition, MIC score 2
How it was run: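 This broth microdilution MIC test followed the reference method for antifungal susceptibility testing of yeasts. Fluconazole served as the internal control on every plate. Inoculum came from 3-day YPD agar cultures, was diluted in YNB to 2.5 × 10^3 CFU/mL in 50 μL per well of 384-well plates, and was incubated 36 h at 35 °C. Compounds ran as two technical replicates across two to four independent assays.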

[7] = tested on: Candida glabrata ATCC 90030 NCCLS 84; assay: Antifungal MIC assay, extended panel; assay type: cell-based; conditions: extended panel, second batch; ≥80 or ≥50% inhibition
Description: (§2) For the fungal assays, both fungi (yeast) strains were cultured for 3 days on Yeast Extract-Peptone Dextrose (YPD; Becton Dickinson 242720) agar at 30 °C. A yeast suspension of 1 × 10^6 to 5 × 10^6 CFU/mL (as determined by OD530) was prepared from five colonies from the agar plates, subsequently diluted with Yeast Nitrogen Base media (YNB; Becton Dickinson 233520), and added to each well of the compound containing plates (384-well plates, NBS; Corning CLS3640), giving a final cell density of 2.5 × 10^3 CFU/mL and a total volume of 50 μL. Plates were covered and incubated at 35 °C for 36 h without shaking. […] MIC values were recorded as the lowest concentration at which the growth was inhibited by ≥80%, equivalent to ″optically clear-to-slightly hazy″ or MIC score of 0–1 as per CLSI guidelines M27 Reference Method for Broth Dilution Antifungal Susceptibility Testing of Yeasts. […] Fluconazole (Sigma F8929) was used as internal control on each plate for all strains. All compounds were tested as two technical replicates in two to four independent biological assays, n = 4–8 final data.

[8] = tested on: Candida tropicalis ATCC 750; assay: Antifungal MIC assay, extended panel; assay type: cell-based; conditions: extended panel, second batch; ≥80 or ≥50% inhibition
Description: as §2

[9] = tested on: Cryptococcus deuterogattii ATCC 32609 VGII; assay: Antifungal MIC assay, extended panel; assay type: cell-based; conditions: extended panel, second batch; ≥80 or ≥50% inhibition
Description: as §2

[10] = tested on: Cryptococcus deuterogattii CBS7750 VGII; Serotype B; assay: Antifungal MIC assay, extended panel; assay type: cell-based; conditions: extended panel, second batch; ≥80 or ≥50% inhibition
Description: as §2

[11] = tested on: G. mellonella larvae; assay: Galleria mellonella in vivo toxicity assay; conditions: 10 μL of the highest concentration injected, monitored 6 days
Description: Based on criteria of overall antifungal activity, cytotoxicity, and hemolysis as well as compound availability, we selected compounds Co1, Ag2, Eu1, Ir1, Pt1, Pt2, Pt4, Pt5, Au1, Au2, and Au4 to conduct a preliminary in vivo toxicity assay. […] The compounds were dissolved in DMSO and diluted to the highest possible final concentration (Table 3). The larvae were then monitored for 6 days for survival and health using the G. mellonella Health Index Scoring System.[111] […] For the other compounds, no detrimental effects could be observed in the larvae over the monitoring period. […] Nevertheless, factors such as the metabolism, excretion, and/or accumulation of the various metal complexes and their metabolites will still need to be studied more rigorously in rodent models if they are to be advanced into the preclinical pipeline.
The toxicity of compounds was tested in vivo using the G. mellonella model using our previously described methods,[61] Briefly, G. mellonella larvae were reared in a controlled environmental room at Macquarie University, Sydney, Australia, at 30 °C and 65% humidity with a 12-h light/dark cycle. Larvae (200–250 mg) were individually injected with 10 μL of chemical into the last right pro-leg using a 100 μL syringe (Hamilton Ltd.). Each compound was dissolved in DMSO at the maximum concentration given in Table 3 and also diluted in water to final concentrations of 100, 10, and 1 μM. We injected five larvae in triplicate for each of the four dilutions for each compound. Larvae injected with different dilutions of DMSO (10^–1, 10^–2, and 10^–3) were included as negative controls. Following injection, the larvae were incubated at 30 °C and monitored every 24 h for 6 days. Larval performance was assessed according to the G. mellonella Health Index Scoring System.[111] The experiments were repeated over three separate days for biological triplicates.

[12] = tested on: Candida glabrata ATCC 90030 NCCLS 84; assay: Antifungal MIC assay, extended panel; assay type: cell-based; conditions: extended panel; 50% inhibition, MIC score 2
[13] = tested on: Candida tropicalis ATCC 750; assay: Antifungal MIC assay, extended panel; assay type: cell-based; conditions: extended panel; 50% inhibition, MIC score 2
[14] = tested on: Cryptococcus deuterogattii CBS7750 VGII; Serotype B; assay: Antifungal MIC assay, extended panel; assay type: cell-based; conditions: extended panel; 50% inhibition, MIC score 2
[15] = tested on: Cryptococcus deuterogattii ATCC 32609 VGII; assay: Antifungal MIC assay, extended panel; assay type: cell-based; conditions: extended panel; 50% inhibition, MIC score 2
[16] = tested on: Acinetobacter baumannii ATCC 19606 type strain; assay: CO-ADD antibacterial MIC assay; assay type: cell-based; conditions: initial CO-ADD dose-response screening; ≥80% growth inhibition
How it was run: (§3)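 Broth microdilution: compounds exposed for 18 h at 37 °C, static, to 5 × 10^5 CFU/mL of mid-log bacteria in cation-adjusted MH broth. OD600 defines MIC as lowest concentration with ≥80% inhibition; n = 4 (2 technical × 2 biological).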

[17] = tested on: Escherichia coli ATCC 25922 FDA control strain; assay: CO-ADD antibacterial MIC assay; assay type: cell-based; conditions: initial CO-ADD dose-response screening; ≥80% growth inhibition
How it was run: as §3

[18] = tested on: Pseudomonas aeruginosa ATCC 27853 QC control strain; assay: CO-ADD antibacterial MIC assay; assay type: cell-based; conditions: initial CO-ADD dose-response screening; ≥80% growth inhibition
How it was run: as §3

[19] = tested on: methicillin-resistant Staphylococcus aureus ATCC 43300; assay: CO-ADD antibacterial MIC assay; assay type: cell-based; conditions: initial CO-ADD dose-response screening; ≥80% growth inhibition
How it was run: as §3

[20] = extended panel, second batch, ≥80 or ≥50% inhibition
[21] = read-out: HEK293 CC50, ranges obtained upon retesting, new batch
[22] = ranges obtained upon retesting, new batch
[23] = initial CO-ADD screening, 1 h, 10% hemolysis
[24] = second batch, ≥80 or ≥50% inhibition

Compound	MIC Candida albicans ATCC 90028 [1] [µM]	MIC50 Candida albicans ATCC 90028 [1] [µM]	MIC50 Cryptococcus neoformans ATCC 208821 ([2]; extended panel) [µM]	HEK CC50 ([3]; initial CO-ADD screening, 20 h) [µg/mL]	CC50 [3, 21] [µM]	RBC HC10 [4, 22] [µM]	MIC50 Candida auris CBS10913 [5] [µM]	MIC Candida auris CBS12373 [6] [µM]	MIC50 Candida auris CBS12373 [6] [µM]	MIC Candida glabrata ATCC 90030 [7] [µM]	MIC Candida tropicalis ATCC 750 [8] [µM]	MIC Cryptococcus deuterogattii ATCC 32609 [9] [µM]	MIC Cryptococcus deuterogattii CBS7750 [10] [µM]	MIC50 Candida glabrata ATCC 90030 [12] [µM]	MIC50 Candida tropicalis ATCC 750 [13] [µM]	MIC50 Cryptococcus deuterogattii CBS7750 [14] [µM]	MIC50 Cryptococcus deuterogattii ATCC 32609 [15] [µM]	MIC Ab [16]	MIC Ec [17]	MIC Pa [18]	further results
c1cnc([S][Au][PH](c2ccco2)(c2ccco2)c2ccco2)nc1 [Au1]	0.049 to 0.391	0.049 to 0.391	0.098 to 0.195	>32	0.1 to 0.6	90 to 200	0.098 to 0.195	0.098 to 0.391	0.098 to 0.391	0.098 to 0.781	0.049 to 0.391	0.098 to 0.391	0.024 to 0.391	0.098 to 0.391	0.049 to 0.391	0.024 to 0.098	0.024 to 0.049	–	–	–	MIC Cryptococcus neoformans ATCC 208821 [2, 20]: 0.098 to 0.195 µM; MIC ([5]; second batch, ≥80 or ≥50% inhibition, read-out: MIC* Candida auris CBS10913): 0.098 µM; toxicity [11]: nontoxic
Cc1c(C)c(-c2ccc(-c3ccccc3)cc2)[c-](C)c1C.Cc1ccccc1NC1=[NH+][Ir]([Cl])[NH]C(NS(=O)(=O)c2cccc3c(N(C)C)cccc23)=N1 [Ir3]	0.024 to 0.098	0.049	0.024	>32	54 to 76	3 to 41	0.098	–	0.024 to 0.049	–	–	0.049 to 0.2	0.024 to 0.049	0.098	0.098	0.024	0.049 to 0.098	>32 µg/mL	>32 µg/mL	>32 µg/mL	MIC MRSA (Sa) [19]: 0.5 µg/mL; MIC Ca [1]: 2 µg/mL; MIC [2, 20]: 0.024 µM; MIC Cn [2]: 1 µg/mL; RBC HC10 [4, 23]: >32 µg/mL; MIC Candida auris CBS10913 [5, 24]: 0.024 to 0.098 µM; MIC [7]: 0.098 µM; MIC [8]: 0.098 µM
CS(=O)(=O)[O][Pd][c]1ccccc1-c1ccccc1N.CS(=O)(=O)[O][Pd][c]1ccccc1-c1ccccc1N [Pd2]	0.05 to 0.2	0.049 to 0.195	≤0.006 to 0.024	–	38 to 53	0.2 to 3	0.024 to 0.098	0.024 to 0.049	0.024 to 0.049	0.049 to 0.195	0.195 to 0.391	0.024 to 0.049	–	0.012 to 0.195	0.195 to 0.391	≤ 0.006	0.024 to 0.098	>20 µM	>20 µM	>20 µM	MIC MRSA (Sa) [19]: >20 µM; MIC Ca [1]: 1.25 µM; MIC [2, 20]: 0.024 µM; MIC Cn [2]: 0.31 µM; CC50 ([3]; read-out: HEK CC50, initial CO-ADD screening, 20 h): > 20 µM; RBC HC10 [4, 23]: >20 µM; MIC Candida auris CBS10913 [5, 24]: 0.024 to 0.098 µM; MIC [10]: 0.098 µM
